One experiment deals with EGFR del19/T790M/C797S (Homo sapiens, UniProt P00533, C797S/DEL746-750/T790M). The experiment is described as follows: Biochemical EGFR kinase assay (Lance Ultra TR-FRET), triple mutant del19/T790M/C797S. In outline: (§1)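 Kinase activity is measured by TR-FRET phosphopeptide detection. Compounds span 0.003 μM to 10 μM; the 1 h reaction at room temperature is quenched with EDTA, then labelled antibody (2 nM) is incubated 60 min before reading.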

The next experiment addresses EGFR L858R/T790M/C797S (Homo sapiens, UniProt P00533, C797S/L858R/T790M). The experiment is described as follows: Biochemical EGFR kinase assay (Lance Ultra TR-FRET), triple mutant L858R/T790M/C797S. In outline: as §1
A further experiment has as its target EGFR del19/C797S (Homo sapiens, UniProt P00533, C797S/DEL746-750). The experiment is described as follows: Biochemical EGFR kinase assay (Lance Ultra TR-FRET), double mutant del19/C797S. The method in brief:
as §1
(In general: Time-resolved FRET reads energy transfer from a long-lived donor to a nearby acceptor.)

The target in the next experiment is EGFR L858R/C797S (Homo sapiens, UniProt P00533, C797S/L858R). The experiment is described as follows: Biochemical EGFR kinase assay (Lance Ultra TR-FRET), double mutant L858R/C797S. In outline:
as §1

For a further experiment, the target named is EGFR wildtype (Homo sapiens, UniProt P00533). The experiment is described as follows: Biochemical EGFR kinase assay (Lance Ultra TR-FRET), wildtype. The method in brief: as §1
Sequence of EGFR wildtype (P00533 25-1210): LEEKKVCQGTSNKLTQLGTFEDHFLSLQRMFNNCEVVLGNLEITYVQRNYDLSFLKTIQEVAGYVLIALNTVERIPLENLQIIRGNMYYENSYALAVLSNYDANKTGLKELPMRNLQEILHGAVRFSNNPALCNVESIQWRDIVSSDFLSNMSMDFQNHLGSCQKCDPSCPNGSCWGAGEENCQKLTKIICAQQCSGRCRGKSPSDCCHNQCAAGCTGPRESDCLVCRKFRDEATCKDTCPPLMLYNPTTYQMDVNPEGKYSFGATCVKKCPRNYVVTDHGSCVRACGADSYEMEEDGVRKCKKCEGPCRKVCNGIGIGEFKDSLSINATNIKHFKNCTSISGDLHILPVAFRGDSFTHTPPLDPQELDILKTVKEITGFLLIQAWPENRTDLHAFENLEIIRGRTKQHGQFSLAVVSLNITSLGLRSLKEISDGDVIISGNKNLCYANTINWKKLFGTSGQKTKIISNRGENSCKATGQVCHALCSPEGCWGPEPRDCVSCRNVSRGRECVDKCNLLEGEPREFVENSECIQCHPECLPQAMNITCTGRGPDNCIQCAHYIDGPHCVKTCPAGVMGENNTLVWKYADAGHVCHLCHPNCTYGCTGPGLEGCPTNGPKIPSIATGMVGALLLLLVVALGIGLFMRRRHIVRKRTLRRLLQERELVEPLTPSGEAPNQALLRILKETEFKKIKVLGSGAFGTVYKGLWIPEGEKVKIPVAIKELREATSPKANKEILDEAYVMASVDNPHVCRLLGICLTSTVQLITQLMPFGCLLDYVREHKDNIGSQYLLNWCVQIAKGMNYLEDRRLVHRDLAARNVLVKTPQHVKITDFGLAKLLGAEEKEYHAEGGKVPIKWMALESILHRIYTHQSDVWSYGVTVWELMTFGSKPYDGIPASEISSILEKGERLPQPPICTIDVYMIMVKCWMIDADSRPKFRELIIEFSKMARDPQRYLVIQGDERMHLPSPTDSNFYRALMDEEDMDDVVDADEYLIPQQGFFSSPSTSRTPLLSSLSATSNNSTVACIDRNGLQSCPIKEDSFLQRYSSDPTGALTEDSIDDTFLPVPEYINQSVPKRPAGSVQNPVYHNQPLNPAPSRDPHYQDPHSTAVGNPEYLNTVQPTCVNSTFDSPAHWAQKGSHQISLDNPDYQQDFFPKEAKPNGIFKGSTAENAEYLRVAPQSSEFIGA
[1] abbreviates: ATP at Km, read-out: IC50 del19/T790M/C797S, Km ATP.
Setting [2] is: IC50 del19/T790M/C797S, 100 μM ATP.
Where [3] appears, read: ATP at Km, read-out: IC50 L858R/T790M/C797S, Km ATP.
Where [4] appears, read: IC50 L858R/T790M/C797S, 100 μM ATP.
Setting [5] is: ATP at Km, read-out: IC50 del19/C797S, Km ATP.
[6] abbreviates: ATP at Km, read-out: IC50 L858R/C797S, Km ATP.
Where [7] appears, read: ATP at Km, read-out: IC50 WT, Km ATP.

Here are results for ten compounds from patent US12258328B2, “6-membered heteroaryl-containing aminopyridine compounds as EGFR inhibitors” (YUHAN CORPORATION, priority 2021, dated 2025).

Read-outs that look alike come from different tables or passages of the source.

Sequence of EGFR del19/C797S (P00533 with tags, fused parts or gaps DEL746-750/C797S): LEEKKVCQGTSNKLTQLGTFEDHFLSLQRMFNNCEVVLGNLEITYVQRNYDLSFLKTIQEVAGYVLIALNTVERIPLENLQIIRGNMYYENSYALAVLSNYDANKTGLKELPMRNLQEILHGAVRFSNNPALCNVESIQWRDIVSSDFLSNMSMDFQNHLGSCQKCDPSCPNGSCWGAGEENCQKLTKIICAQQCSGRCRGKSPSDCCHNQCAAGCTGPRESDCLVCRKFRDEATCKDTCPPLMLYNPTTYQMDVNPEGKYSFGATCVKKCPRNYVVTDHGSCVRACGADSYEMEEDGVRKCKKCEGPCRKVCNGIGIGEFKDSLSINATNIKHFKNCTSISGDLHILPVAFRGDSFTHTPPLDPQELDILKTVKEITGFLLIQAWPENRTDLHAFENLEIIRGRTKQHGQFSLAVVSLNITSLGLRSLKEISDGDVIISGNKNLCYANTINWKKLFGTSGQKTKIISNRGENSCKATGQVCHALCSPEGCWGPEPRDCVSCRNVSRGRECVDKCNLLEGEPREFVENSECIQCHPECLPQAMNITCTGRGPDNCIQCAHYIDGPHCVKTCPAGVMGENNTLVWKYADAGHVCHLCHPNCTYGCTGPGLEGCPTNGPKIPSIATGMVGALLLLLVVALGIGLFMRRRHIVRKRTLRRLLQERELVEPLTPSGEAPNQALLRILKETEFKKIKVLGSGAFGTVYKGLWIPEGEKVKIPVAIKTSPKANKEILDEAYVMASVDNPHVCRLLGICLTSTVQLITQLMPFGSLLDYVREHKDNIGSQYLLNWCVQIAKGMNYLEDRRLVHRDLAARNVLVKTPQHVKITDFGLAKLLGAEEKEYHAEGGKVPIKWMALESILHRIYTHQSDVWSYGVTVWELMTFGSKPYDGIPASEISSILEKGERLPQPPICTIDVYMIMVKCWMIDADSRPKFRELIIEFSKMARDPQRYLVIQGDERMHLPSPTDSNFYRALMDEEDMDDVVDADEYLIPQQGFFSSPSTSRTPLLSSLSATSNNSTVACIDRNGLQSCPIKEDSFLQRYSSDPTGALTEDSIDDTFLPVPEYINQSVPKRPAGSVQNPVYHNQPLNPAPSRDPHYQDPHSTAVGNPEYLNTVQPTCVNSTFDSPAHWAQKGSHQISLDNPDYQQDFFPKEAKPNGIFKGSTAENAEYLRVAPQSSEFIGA
Sequence of EGFR L858R/C797S (P00533 25-1210 C797S/L858R): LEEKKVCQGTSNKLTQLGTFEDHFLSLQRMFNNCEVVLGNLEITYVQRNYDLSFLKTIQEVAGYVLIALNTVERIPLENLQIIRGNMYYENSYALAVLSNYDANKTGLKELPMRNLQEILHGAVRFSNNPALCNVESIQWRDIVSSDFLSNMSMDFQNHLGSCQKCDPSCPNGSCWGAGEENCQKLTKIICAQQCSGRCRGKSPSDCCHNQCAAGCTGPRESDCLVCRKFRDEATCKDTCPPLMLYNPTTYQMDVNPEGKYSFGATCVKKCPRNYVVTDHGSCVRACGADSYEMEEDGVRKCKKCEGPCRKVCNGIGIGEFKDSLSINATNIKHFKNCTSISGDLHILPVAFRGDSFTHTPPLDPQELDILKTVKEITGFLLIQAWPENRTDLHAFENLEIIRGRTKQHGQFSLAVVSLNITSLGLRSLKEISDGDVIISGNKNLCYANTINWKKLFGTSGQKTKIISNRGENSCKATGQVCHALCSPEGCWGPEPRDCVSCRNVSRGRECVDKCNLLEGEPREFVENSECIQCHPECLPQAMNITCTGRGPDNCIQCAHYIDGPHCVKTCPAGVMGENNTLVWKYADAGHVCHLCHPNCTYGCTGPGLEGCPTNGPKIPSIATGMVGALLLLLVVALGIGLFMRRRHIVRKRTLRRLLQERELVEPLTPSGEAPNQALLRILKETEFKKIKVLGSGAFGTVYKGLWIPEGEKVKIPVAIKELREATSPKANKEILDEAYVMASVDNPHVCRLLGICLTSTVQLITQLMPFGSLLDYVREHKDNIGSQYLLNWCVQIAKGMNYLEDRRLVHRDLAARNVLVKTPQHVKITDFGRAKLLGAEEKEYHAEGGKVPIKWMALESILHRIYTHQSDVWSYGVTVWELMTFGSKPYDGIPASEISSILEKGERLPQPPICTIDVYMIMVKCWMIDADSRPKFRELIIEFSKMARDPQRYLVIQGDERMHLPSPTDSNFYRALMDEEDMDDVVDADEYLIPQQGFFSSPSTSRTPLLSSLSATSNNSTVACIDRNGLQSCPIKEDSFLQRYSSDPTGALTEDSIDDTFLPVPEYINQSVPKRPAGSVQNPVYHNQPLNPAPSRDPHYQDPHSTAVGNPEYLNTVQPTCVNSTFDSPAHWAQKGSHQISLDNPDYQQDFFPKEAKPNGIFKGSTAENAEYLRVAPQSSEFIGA
Sequence of EGFR L858R/T790M/C797S (P00533 25-1210 T790M/C797S/L858R): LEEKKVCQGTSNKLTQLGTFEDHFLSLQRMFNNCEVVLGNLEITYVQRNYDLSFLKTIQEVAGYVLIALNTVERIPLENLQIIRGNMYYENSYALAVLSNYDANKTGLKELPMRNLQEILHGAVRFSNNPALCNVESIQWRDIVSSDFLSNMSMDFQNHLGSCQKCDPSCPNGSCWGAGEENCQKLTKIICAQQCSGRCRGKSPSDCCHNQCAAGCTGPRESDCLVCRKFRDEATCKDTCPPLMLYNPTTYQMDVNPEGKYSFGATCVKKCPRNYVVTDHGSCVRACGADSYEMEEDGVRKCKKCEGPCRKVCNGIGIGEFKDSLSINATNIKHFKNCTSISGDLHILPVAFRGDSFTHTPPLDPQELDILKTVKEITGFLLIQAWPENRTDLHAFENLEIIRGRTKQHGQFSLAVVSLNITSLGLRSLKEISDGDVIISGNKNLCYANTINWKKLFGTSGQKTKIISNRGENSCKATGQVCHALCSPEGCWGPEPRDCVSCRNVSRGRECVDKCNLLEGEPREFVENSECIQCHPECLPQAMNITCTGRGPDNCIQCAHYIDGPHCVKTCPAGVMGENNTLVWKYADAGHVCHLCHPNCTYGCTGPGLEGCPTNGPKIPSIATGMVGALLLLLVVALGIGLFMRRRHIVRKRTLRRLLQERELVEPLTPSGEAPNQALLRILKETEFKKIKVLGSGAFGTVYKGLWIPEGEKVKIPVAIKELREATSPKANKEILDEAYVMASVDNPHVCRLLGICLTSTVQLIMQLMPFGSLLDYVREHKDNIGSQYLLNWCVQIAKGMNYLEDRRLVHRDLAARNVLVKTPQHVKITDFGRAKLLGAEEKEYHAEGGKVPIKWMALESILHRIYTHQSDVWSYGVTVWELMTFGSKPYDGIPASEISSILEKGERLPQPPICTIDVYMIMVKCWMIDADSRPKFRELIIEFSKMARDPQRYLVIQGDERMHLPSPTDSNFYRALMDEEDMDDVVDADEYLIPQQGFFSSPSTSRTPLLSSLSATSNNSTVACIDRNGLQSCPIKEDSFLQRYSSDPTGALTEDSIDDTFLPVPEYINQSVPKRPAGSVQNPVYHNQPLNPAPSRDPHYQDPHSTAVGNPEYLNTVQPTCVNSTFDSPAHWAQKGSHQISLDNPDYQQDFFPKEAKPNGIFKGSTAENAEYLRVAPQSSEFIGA

`CN(C)CC1CCC(Nc2cc(Nc3ccnc(-c4cnn(S(=O)(=O)C5CC5)c4)n3)ncc2-c2ccc(C(C)(O)C(F)(F)F)cn2)CC1` (centres unmarked) [Example 234, 2-(6′-((2-(1-(Cyclopropylsulfonyl)-1H-pyrazol-4-yl)pyrimidin-4-yl)amino)-4′-(((1s,4s)-4-((dimethylamino)methyl)cyclohexyl)amino)-[2,3′-bipyridin]-5-yl)-1,1,1-trifluoropropan-2-ol]: the IC50 at EGFR del19/T790M/C797S (setting [1]) was found to be 0.5 nM; against EGFR del19/T790M/C797S (setting [2]), 0.3 nM; at EGFR L858R/T790M/C797S (setting [3]), 0.2 nM; on EGFR L858R/T790M/C797S (setting [4]), 0.2 nM; at EGFR del19/C797S (setting [5]), 0.2 nM; against EGFR del19/C797S (IC50 del19/C797S, 100 μM ATP), 0.5 nM. Moreover, the IC50 came to 0.3 nM on EGFR L858R/C797S (setting [6]); 0.7 nM against EGFR L858R/C797S (IC50 L858R/C797S, 100 μM ATP); 0.7 nM on EGFR wildtype (setting [7]); 122 nM on EGFR wildtype (IC50 WT, 100 μM ATP).
In the case of `CC(C)(F)c1ccc(-c2cnc(Nc3ccnc(-c4cnn(S(=O)(=O)C5CC5)c4)n3)cc2N[C@H]2CC[C@@H](CO)CC2)nc1` [Example 235, ((1s,4s)-4-((6′-((2-(1-(Cyclopropylsulfonyl)-1H-pyrazol-4-yl)pyrimidin-4-yl)amino)-5-(2-fluoropropan-2-yl)-[2,3′-bipyridin]-4′-yl)amino)cyclohexyl)methanol], the IC50 was 1 nM on EGFR del19/T790M/C797S (setting [1]); 0.8 nM at EGFR L858R/T790M/C797S (setting [3]); 2.7 nM on EGFR L858R/T790M/C797S (setting [4]); 3.1 nM at EGFR del19/C797S (setting [5]); 1 nM on EGFR L858R/C797S (setting [6]); 8.1 nM against EGFR L858R/C797S (IC50 L858R/C797S, 100 μM ATP). The IC50 came to 4.9 nM on EGFR wildtype (setting [7]) and 692 nM on EGFR wildtype (IC50 WT, 100 μM ATP).
Regarding `CC(C)(F)c1ccc(-c2cnc(Nc3ccnc(-c4cnn(S(=O)(=O)C5CC5)c4)n3)cc2N[C@H]2CC[C@@H](C(C)(C)O)CC2)nc1` [Example 236, 2-((1s,4s)-4-((6′-((2-(1-(Cyclopropylsulfonyl)-1H-pyrazol-4-yl)pyrimidin-4-yl)amino)-5-(2-fluoropropan-2-yl)-[2,3′-bipyridin]-4′-yl)amino)cyclohexyl)propan-2-ol], the IC50 at EGFR del19/T790M/C797S (setting [1]) turned out to be 2.5 nM; at EGFR del19/T790M/C797S (setting [2]) it was 9.1 nM; at EGFR L858R/T790M/C797S (setting [3]), 1.9 nM; at EGFR L858R/T790M/C797S (setting [4]), 6.4 nM; on EGFR del19/C797S (setting [5]), 9.1 nM; against EGFR del19/C797S (IC50 del19/C797S, 100 μM ATP), 24.4 nM. Further, the IC50 is 3 nM at EGFR L858R/C797S (setting [6]); 177 nM on EGFR L858R/C797S (IC50 L858R/C797S, 100 μM ATP); 41.8 nM at EGFR wildtype (setting [7]); more than 10000 nM at EGFR wildtype (IC50 WT, 100 μM ATP).
On to `CC(C)(F)c1ccc(-c2cnc(Nc3ccnc(-c4cnn(S(=O)(=O)C5CC5)c4)n3)cc2N[C@H]2CC[C@@H](F)CC2)nc1` [Example 238, N^6′-(2-(1-(Cyclopropylsulfonyl)-1H-pyrazol-4-yl)pyrimidin-4-yl)-N^4′-((1s,4s)-4-fluorocyclohexyl)-5-(2-fluoropropan-2-yl)-[2,3′-bipyridine]-4′,6′-diamine], for which the IC50 on EGFR del19/T790M/C797S (setting [1]) amounted to 28.4 nM; at EGFR L858R/T790M/C797S (setting [3]) it was 9.2 nM; at EGFR del19/C797S (setting [5]), 95.1 nM; at EGFR L858R/C797S (setting [6]) it was 18.7 nM; at EGFR wildtype (setting [7]), 317 nM.
For the compound `CC(C)(F)c1ccc(-c2cnc(Nc3ccnc(-c4cnn(S(=O)(=O)C5CC5)c4)n3)cc2NC2CCC(F)CC2)nc1` (centres unmarked) [Example 239, N^6′-(2-(1-(Cyclopropylsulfonyl)-1H-pyrazol-4-yl)pyrimidin-4-yl)-N^4′-(4-fluorocyclohexyl)-5-(2-fluoropropan-2-yl)-[2,3′-bipyridine]-4′,6′-diamine], the IC50 on EGFR del19/T790M/C797S (setting [1]) worked out at 15.1 nM; on EGFR L858R/T790M/C797S (setting [3]) it was 3.9 nM; at EGFR del19/C797S (setting [5]), 72.7 nM; at EGFR L858R/C797S (setting [6]), 31.6 nM; at EGFR wildtype (setting [7]), 216 nM.
On to `CC(C)(F)c1ccc(-c2cnc(Nc3ccnc(-c4cnn(S(=O)(=O)C5CC5)c4)n3)cc2NC2CCC(F)(F)CC2)nc1` [Example 240, N^6′-(2-(1-(Cyclopropylsulfonyl)-1H-pyrazol-4-yl)pyrimidin-4-yl)-N^4′-(4,4-difluorocyclohexyl)-5-(2-fluoropropan-2-yl)-[2,3′-bipyridine]-4′,6′-diamine], for which the IC50 turned out to be 19.8 nM at EGFR del19/T790M/C797S (setting [1]); 5.9 nM on EGFR L858R/T790M/C797S (setting [3]); 134 nM at EGFR del19/C797S (setting [5]); 15.4 nM at EGFR L858R/C797S (setting [6]); 733 nM at EGFR wildtype (setting [7]).
For the compound `CC(F)(F)c1ccc(-c2cnc(Nc3ccnc(-c4cnn(S(=O)(=O)C5CC5)c4)n3)cc2N[C@H]2CC[C@@H](CO)CC2)nc1` [Example 241, ((1s,4s)-4-((6′-((2-(1-(Cyclopropylsulfonyl)-1H-pyrazol-4-yl)pyrimidin-4-yl)amino)-5-(1,1-difluoroethyl)-[2,3′-bipyridin]-4′-yl)amino)cyclohexyl)methanol], the IC50 on EGFR del19/T790M/C797S (setting [1]) amounted to 2.3 nM; at EGFR del19/T790M/C797S (setting [2]) it was 4.4 nM; on EGFR L858R/T790M/C797S (setting [3]), 1.8 nM; against EGFR L858R/T790M/C797S (setting [4]), 6.9 nM; at EGFR del19/C797S (setting [5]), 6.3 nM; against EGFR del19/C797S (IC50 del19/C797S, 100 μM ATP), 12.9 nM. The IC50 on EGFR L858R/C797S (setting [6]) was 2.9 nM; at EGFR L858R/C797S (IC50 L858R/C797S, 100 μM ATP) it was 22 nM; at EGFR wildtype (setting [7]) it was 20.3 nM; against EGFR wildtype (IC50 WT, 100 μM ATP) it was 2640 nM.
As for `CC(F)(F)c1ccc(-c2cnc(Nc3ccnc(-c4cnn(S(=O)(=O)C5CC5)c4)n3)cc2N[C@H]2CC[C@@H](C(C)(C)O)CC2)nc1` [Example 242, 2-((1s,4s)-4-((6′-((2-(1-(Cyclopropylsulfonyl)-1H-pyrazol-4-yl)pyrimidin-4-yl)amino)-5-(1,1-difluoroethyl)-[2,3′-bipyridin]-4′-yl)amino)cyclohexyl)propan-2-ol], the IC50 at EGFR del19/T790M/C797S (setting [1]) stood at 4.8 nM; against EGFR del19/T790M/C797S (setting [2]), 9.7 nM; at EGFR L858R/T790M/C797S (setting [3]), 2.5 nM; on EGFR L858R/T790M/C797S (setting [4]), 11.3 nM; at EGFR del19/C797S (setting [5]), 15.2 nM; against EGFR del19/C797S (IC50 del19/C797S, 100 μM ATP), 18.7 nM. Further, the IC50 on EGFR L858R/C797S (setting [6]) was 10.7 nM; at EGFR L858R/C797S (IC50 L858R/C797S, 100 μM ATP), 179 nM; at EGFR wildtype (setting [7]), 53.5 nM; on EGFR wildtype (IC50 WT, 100 μM ATP) it was more than 10000 nM.
Regarding `O=S(=O)(C1CC1)n1cc(-c2nccc(Nc3cc(N[C@H]4CC[C@@H](CO)CC4)c(-c4ccc(C(F)(F)CO)cn4)cn3)n2)cn1` [Example 244, 2-(6′-((2-(1-(Cyclopropylsulfonyl)-1H-pyrazol-4-yl)pyrimidin-4-yl)amino)-4′-(((1s,4s)-4-(hydroxymethyl)cyclohexyl)amino)-[2,3′-bipyridin]-5-yl)-2,2-difluoroethan-1-ol], the IC50 stood at 0.9 nM on EGFR del19/T790M/C797S (setting [1]); 1.7 nM against EGFR del19/T790M/C797S (setting [2]); 0.2 nM on EGFR L858R/T790M/C797S (setting [3]); 0.3 nM against EGFR L858R/T790M/C797S (setting [4]); 0.6 nM on EGFR del19/C797S (setting [5]); 0.9 nM against EGFR del19/C797S (IC50 del19/C797S, 100 μM ATP). Also, the IC50 turned out to be 0.4 nM at EGFR L858R/C797S (setting [6]); 0.9 nM at EGFR L858R/C797S (IC50 L858R/C797S, 100 μM ATP); 1.8 nM on EGFR wildtype (setting [7]); 1420 nM against EGFR wildtype (IC50 WT, 100 μM ATP).
For `O=S(=O)(C1CC1)n1cc(-c2nccc(Nc3cc(N[C@H]4CC[C@@H](CO)CC4)c(-c4cccc(CC(F)(F)F)n4)cn3)n2)cn1` [Example 246, ((1s,4s)-4-((6′-((2-(1-(Cyclopropylsulfonyl)-1H-pyrazol-4-yl)pyrimidin-4-yl)amino)-6-(2,2,2-trifluoroethyl)-[2,3′-bipyridin]-4′-yl)amino)cyclohexyl)methanol], the IC50 at EGFR del19/T790M/C797S (setting [1]) is 3 nM; against EGFR del19/T790M/C797S (setting [2]), 7.2 nM; at EGFR L858R/T790M/C797S (setting [3]) it was 0.4 nM; at EGFR L858R/T790M/C797S (setting [4]), 1.1 nM; on EGFR del19/C797S (setting [5]), 6.9 nM; on EGFR del19/C797S (IC50 del19/C797S, 100 μM ATP), 21.1 nM. The IC50 on EGFR L858R/C797S (setting [6]) was 12.4 nM; at EGFR L858R/C797S (IC50 L858R/C797S, 100 μM ATP) it was 45.2 nM; on EGFR wildtype (setting [7]) it was 42 nM; against EGFR wildtype (IC50 WT, 100 μM ATP), more than 10000 nM.
